Reference: PubChem BioAssay (NCI)
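Tested at 5 concentrations; 48 h exposure; 96-well plates; endpoints linearly interpolated, else capped at highest concentration. GI50 is the concentration that inhibits growth by half. TGI is the concentration that stops growth completely.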

What was measured:
Assay in all cases: inhibition of tumour cell growth, NCI panel, 48 h; in the data active = GI50 below about 0.43 µM; inactive = the rest
OVCAR-5 ovarian = tested on: OVCAR-5 ovarian
HOP-62 NSCLC = tested on: HOP-62 NSCLC
NCI-H522 lung = tested on: NCI-H522 lung
HT29 colon = tested on: HT29 colon
UACC-62 melanoma = tested on: UACC-62 melanoma
SF-268 CNS = tested on: SF-268 CNS
NCI-H23 lung = tested on: NCI-H23 lung
OVCAR-4 ovarian = tested on: OVCAR-4 ovarian
M14 melanoma = tested on: M14 melanoma
SW-620 colon = tested on: SW-620 colon

Cc1nnc(Nc2ccc(NC(=O)Nc3ccc(Cl)cc3)cc2)c2ccccc12
4.76 µM: TGI (SW-620 colon)
3.57 µM: TGI (M14 melanoma)
4.99 µM: TGI (OVCAR-5 ovarian)
3.7 µM: TGI (HOP-62 NSCLC)
6.31 µM: TGI (NCI-H23 lung)
inactive: GI50 (OVCAR-5 ovarian) 2.1 µM | GI50 (HOP-62 NSCLC) 1.81 µM | GI50 (NCI-H522 lung) 1.84 µM | GI50 (HT29 colon) 1.78 µM | GI50 (UACC-62 melanoma) 1.75 µM | GI50 (SF-268 CNS) 2.57 µM | GI50 (NCI-H23 lung) 2.38 µM | GI50 (OVCAR-4 ovarian) 2.79 µM | GI50 (M14 melanoma) 1.76 µM | GI50 (SW-620 colon) 2.15 µM
8.36 µM: TGI (OVCAR-4 ovarian)
3.88 µM: TGI (NCI-H522 lung)
7.17 µM: TGI (SF-268 CNS)
3.67 µM: TGI (HT29 colon)
3.59 µM: TGI (UACC-62 melanoma)

O=C(/C=C/c1ccc[nH]1)c1ccc(-n2ccc(C(F)(F)F)n2)cc1
> 100 µM: TGI (OVCAR-5 ovarian) | TGI (HOP-62 NSCLC) | TGI (NCI-H522 lung) | TGI (HT29 colon) | TGI (UACC-62 melanoma) | TGI (SF-268 CNS) | TGI (NCI-H23 lung) | TGI (OVCAR-4 ovarian) | TGI (M14 melanoma) | TGI (SW-620 colon)
inactive: GI50 (OVCAR-5 ovarian) > 100 µM | GI50 (HOP-62 NSCLC) > 100 µM | GI50 (NCI-H522 lung) 4.08 µM | GI50 (HT29 colon) > 100 µM | GI50 (UACC-62 melanoma) > 100 µM | GI50 (SF-268 CNS) 3.8 µM | GI50 (NCI-H23 lung) > 100 µM | GI50 (OVCAR-4 ovarian) 99.1 µM | GI50 (M14 melanoma) > 100 µM | GI50 (SW-620 colon) > 100 µM

C/C(N=NC(=S)N1CC2CCC(CC2)C1)=C1\C=CC=CN1O
> 57.9 µM: TGI (HT29 colon)
80.3 µM: TGI (NCI-H522 lung)
29.3 µM: TGI (UACC-62 melanoma)
> 100 µM: TGI (OVCAR-5 ovarian) | TGI (HOP-62 NSCLC) | TGI (SF-268 CNS) | TGI (NCI-H23 lung) | TGI (OVCAR-4 ovarian) | TGI (SW-620 colon)
20.3 µM: TGI (M14 melanoma)

C#CC1/C(=C\C(=O)OC)CCCC1O (stereo not given)
> 100 µM: TGI (OVCAR-5 ovarian) | TGI (HOP-62 NSCLC) | TGI (NCI-H522 lung) | TGI (HT29 colon) | TGI (UACC-62 melanoma) | TGI (SF-268 CNS) | TGI (NCI-H23 lung) | TGI (OVCAR-4 ovarian) | TGI (M14 melanoma) | TGI (SW-620 colon)

CN(C)C(=S)/N=c1\sn(C)/c(=N\C(=S)N(C)C)n1C
> 100 µM: TGI (OVCAR-5 ovarian) | TGI (HOP-62 NSCLC) | TGI (NCI-H522 lung) | TGI (HT29 colon) | TGI (UACC-62 melanoma) | TGI (SF-268 CNS) | TGI (NCI-H23 lung) | TGI (OVCAR-4 ovarian) | TGI (M14 melanoma) | TGI (SW-620 colon)

CCC(C)(C)c1ccc(OCCCCNC(=O)c2ccc3ccccc3c2O)c(C(C)(C)CC)c1
92.4 µM: TGI (UACC-62 melanoma)
87 µM: TGI (SW-620 colon)
> 100 µM: TGI (OVCAR-5 ovarian) | TGI (HOP-62 NSCLC) | TGI (HT29 colon) | TGI (SF-268 CNS) | TGI (NCI-H23 lung) | TGI (OVCAR-4 ovarian) | TGI (M14 melanoma)
91.2 µM: TGI (NCI-H522 lung)

CC12CCC(=O)C[C@H]1CCC(OC=O)C2Br (stereo not given in full)
> 100 µM: TGI (OVCAR-5 ovarian) | TGI (HOP-62 NSCLC) | TGI (NCI-H522 lung) | TGI (HT29 colon) | TGI (UACC-62 melanoma) | TGI (SF-268 CNS) | TGI (NCI-H23 lung) | TGI (OVCAR-4 ovarian) | TGI (M14 melanoma) | TGI (SW-620 colon)

CCn1c(O)c(/C=N/NC(=O)C(C)c2ccc(CC(C)C)cc2)sc1=S (stereo not given)
> 41.1 µM: TGI (NCI-H23 lung)
> 40.9 µM: TGI (SW-620 colon)
> 37.8 µM: TGI (HT29 colon)
5.58 µM: TGI (NCI-H522 lung)
> 43.4 µM: TGI (SF-268 CNS)
> 44.7 µM: TGI (OVCAR-5 ovarian)
active: GI50 (NCI-H522 lung) 0.277 µM | GI50 (M14 melanoma) 0.285 µM | GI50 (SW-620 colon) 0.394 µM
inactive: GI50 (OVCAR-5 ovarian) 0.619 µM | GI50 (HOP-62 NSCLC) 0.549 µM | GI50 (HT29 colon) 2.42 µM | GI50 (UACC-62 melanoma) 0.435 µM | GI50 (SF-268 CNS) 1.63 µM | GI50 (NCI-H23 lung) 0.673 µM | GI50 (OVCAR-4 ovarian) 1.08 µM
15 µM: TGI (UACC-62 melanoma)
14.5 µM: TGI (M14 melanoma)
> 52 µM: TGI (OVCAR-4 ovarian)
> 50.7 µM: TGI (HOP-62 NSCLC)

COc1ccc(OCC(=O)O)c2c1CCCC2=O
> 100 µM: TGI (OVCAR-5 ovarian) | TGI (HOP-62 NSCLC) | TGI (NCI-H522 lung) | TGI (HT29 colon) | TGI (UACC-62 melanoma) | TGI (SF-268 CNS) | TGI (NCI-H23 lung) | TGI (OVCAR-4 ovarian) | TGI (M14 melanoma) | TGI (SW-620 colon)
